{
  "source": "PubChem BioAssay AID588780",
  "about": "(Sanford-Burnham Center for Chemical Genomics, 2011)",
  "note": "The source made the active and inactive calls.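 Rule for the calls: active = compounds whose fitted half-maximal concentration in the cell-protection dose series is at or below a set limit; inactive = the rest.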",
  "data": [
    {"system": "H9c2 cardiomyocytes, 2-deoxyglucose stress, ATP luminescence, 2 h", "assay": "H9c2 cell survival under 2-deoxyglucose stress – uHTS hits, dose response (AID 588780)", "values": [
      {"compound": "Cc1sc2nc(SCC(=O)N(C)C)[nH]c(=O)c2c1C", "IC50": "> 79 µM (inactive)"},
      {"compound": "NNC(=O)c1cc2ccccc2cc1O", "IC50": "> 79 µM (inactive)"},
      {"compound": "COc1ccccc1NS(=O)(=O)c1cc(NC(=O)Cc2n[nH]c(=O)c3ccccc23)ccc1Cl", "IC50": "24.5 µM"},
      {"compound": "COc1cc(/C=N\\NC(=O)c2cccnc2)ccc1OC(=O)c1ccccc1Cl", "IC50": "> 79 µM (inactive)"},
      {"compound": "CCOC(=O)[C@H]1[C@H]2COc3ccc(Br)cc3[C@@H]2N2C(=O)c3cc(OC)c(OC)cc3NC(=O)[C@@]12C", "IC50": "40 µM (inactive)"},
      {"compound": "Cc1cc(NC(=O)COC(=O)Cn2[nH]c(=O)c3ccccc3c2=O)c([N+](=O)[O-])cc1C", "IC50": "> 79 µM (inactive)"},
      {"compound": "CCOC(=O)C(Cc1ccc(NC(=O)/C(=C/c2ccc(OC(C)=O)cc2)NC(C)=O)cc1)N1C(=O)c2ccccc2C1=O", "note": "(configuration not stated)", "IC50": "> 79 µM (inactive)"},
      {"compound": "COc1ccc(-c2oc(=O)c3cc(OC)c(OC)cc3c2C#CCCO)cc1", "IC50": "> 79 µM (inactive)"},
      {"compound": "Cc1ccc(C(=O)Oc2ccc(Cl)c3cccnc23)cc1[N+](=O)[O-]", "IC50": "> 79 µM (inactive)"},
      {"compound": "Cc1cc(NC(=O)C2CCCCC2)nc2c1c(=O)oc1ccccc12", "IC50": "15.3 µM"},
      {"compound": "CCCc1nc2ccccc2c(C(=O)OCc2nnc(-c3cc(OC)c(OC)c(OC)c3)o2)c1CC", "IC50": "11 µM"},
      {"compound": "CCCCOc1ccc(C(=O)NCC(=O)N(C)Cc2nc3ccccc3c(=O)[nH]2)cc1", "IC50": "> 79 µM (inactive)"},
      {"compound": "CCN(CC(=O)Nc1ccc(OC)cc1)C(=O)c1cc(-c2cccs2)nn1-c1ccccc1", "IC50": "9.06 µM"},
      {"compound": "CC(C)c1ccccc1NC(=O)COC(=O)c1c2c(nc3ccccc13)CCN(Cc1ccccc1)C2", "IC50": "> 79 µM (inactive)"},
      {"compound": "CC(=O)Nc1cc(-c2ccccc2)cn2c(-c3cccc(C(C)=O)c3)cnc12", "IC50": "17.8 µM"},
      {"compound": "Cc1cc2[nH]c(=O)c3ccccc3n2n1", "IC50": "> 79 µM (inactive)"},
      {"compound": "O=C(CCn1nc(-c2ccccc2)c2ccccc2c1=O)N1CCN(c2ccccc2)CC1", "IC50": "> 79 µM (inactive)"},
      {"compound": "COc1ccc(Br)cc1/C=N/NC(=O)CNC(=O)/C=C/c1ccccc1", "IC50": "> 79 µM (inactive)"},
      {"compound": "NC(=O)c1oc2ccccc2c1NC(=O)c1ccco1", "IC50": "29.4 µM"},
      {"compound": "CCCCn1nc(NC(=O)c2cccs2)c2cc3ccccc3nc21", "IC50": "18.2 µM"},
      {"compound": "CC(OC(=O)Cn1[nH]c(=O)c2ccccc2c1=O)C(=O)Nc1ccccc1[N+](=O)[O-]", "note": "(configuration not stated)", "IC50": "27.9 µM"},
      {"compound": "COc1ccc(Cl)cc1-c1nc(-c2ccc(NC(=O)c3cccs3)cc2)no1", "IC50": "> 79 µM (inactive)"},
      {"compound": "CCOC(=O)C1CCN(C(c2cc3c(C)ccc(C)c3[nH]c2=O)c2nnnn2C2CCCCC2)CC1", "note": "(configuration not stated)", "IC50": "> 79 µM (inactive)"},
      {"compound": "Cc1cc(C)cc(NC(=O)CSc2ccc(-c3ccccn3)nn2)c1", "IC50": "> 79 µM (inactive)"},
      {"compound": "CC(OC(=O)Cn1[nH]c(=O)c2ccccc2c1=O)C(=O)Nc1ccc(F)cc1Cl", "note": "(configuration not stated)", "IC50": "> 79 µM (inactive)"},
      {"compound": "CNC(=O)c1ccc(-c2sc3nc(N4CCOCC4)c4c(c3c2N)CC(C)(C)OC4)o1", "IC50": "13.2 µM"},
      {"compound": "CC(=O)c1ccc(-c2cnc3c(NC=O)cc(-c4cccc(NS(C)(=O)=O)c4)cn23)cc1", "IC50": "> 79 µM (inactive)"},
      {"compound": "O=C(Nc1ccccc1)c1nc[nH]c1C(=O)NCCNC(=O)c1[nH]cnc1C(=O)Nc1ccccc1", "IC50": "> 79 µM (inactive)"},
      {"compound": "CCOC(=O)CSc1nnc(CSc2nc3ccccc3c(=O)[nH]2)n1-c1ccccc1", "IC50": "> 79 µM (inactive)"},
      {"compound": "CCn1nc(C(=O)NNC(=O)c2cc(Cl)ccc2OC)c2ccccc2c1=O", "IC50": "74 µM (inactive)"},
      {"compound": "COc1ccc(OC)c(N(CC(=O)Nc2cccnc2)S(=O)(=O)c2ccc(OC)c(OC)c2)c1", "IC50": "42.7 µM (inactive)"},
      {"compound": "CCSc1nnc(N)s1", "IC50": "> 79 µM (inactive)"},
      {"compound": "Cc1cc(C(=O)N/N=C/c2c(CO)cnc(C)c2O)c2ccccc2n1", "IC50": "> 79 µM (inactive)"},
      {"compound": "CCCn1c(=O)c(C(=O)Nc2ccccc2)c(O)c2ccccc21", "IC50": "> 79 µM (inactive)"},
      {"compound": "Cn1c2ccc(F)cc2c2nnc(NN)nc21", "IC50": "> 79 µM (inactive)"},
      {"compound": "Cc1ccc(NC(=O)c2cc(=O)c3ccccc3o2)cc1S(=O)(=O)N1CCOCC1", "IC50": "35.4 µM (inactive)"},
      {"compound": "COc1cc(/C=C(\\C#N)c2nc3ccc(C)cc3[nH]2)c([N+](=O)[O-])cc1OC", "IC50": "18 µM"}
    ]}
  ]
}
